This note sets out measurements from patent publication US10287255B2, “Compounds as histone deacetylase 6 inhibitors and pharmaceutical compositions comprising the same” (CHONG KUN DANG PHARMACEUTICAL CORP., priority 2014, dated 2019).

Broadly, the IC50 is the point on the concentration scale where inhibition reaches its midpoint.

One test concerns the target T1, human recombinant HDAC1 (Homo sapiens, UniProt Q13547).
T1 construct: purchased Enzo Life Science BML-SE456
The test can be described thus: HDAC1 enzyme activity inhibition assay (in vitro, fluorimetric). The class given is biochemical. The settings on record: human recombinant HDAC1, fluorimetric kit, 30° C. 60 minutes. The procedure, abridged:
(§1)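 Human recombinant enzyme (0.3 μg for HDAC1) reacted with 10 μM Fluor de Lys-SIRT1 substrate and 5-fold compound dilutions at 30 °C for 60 min, then developer for 30 min. Fluorescence read at Ex 360/Em 460; IC50 calculated. HDAC6 run by the same protocol.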

Another test concerns the target T2, human recombinant HDAC6 (Homo sapiens, UniProt Q9UBN7).
T2 construct: purchased Calbiochem 382180
T2 sequence (Q9UBN7 1-1215): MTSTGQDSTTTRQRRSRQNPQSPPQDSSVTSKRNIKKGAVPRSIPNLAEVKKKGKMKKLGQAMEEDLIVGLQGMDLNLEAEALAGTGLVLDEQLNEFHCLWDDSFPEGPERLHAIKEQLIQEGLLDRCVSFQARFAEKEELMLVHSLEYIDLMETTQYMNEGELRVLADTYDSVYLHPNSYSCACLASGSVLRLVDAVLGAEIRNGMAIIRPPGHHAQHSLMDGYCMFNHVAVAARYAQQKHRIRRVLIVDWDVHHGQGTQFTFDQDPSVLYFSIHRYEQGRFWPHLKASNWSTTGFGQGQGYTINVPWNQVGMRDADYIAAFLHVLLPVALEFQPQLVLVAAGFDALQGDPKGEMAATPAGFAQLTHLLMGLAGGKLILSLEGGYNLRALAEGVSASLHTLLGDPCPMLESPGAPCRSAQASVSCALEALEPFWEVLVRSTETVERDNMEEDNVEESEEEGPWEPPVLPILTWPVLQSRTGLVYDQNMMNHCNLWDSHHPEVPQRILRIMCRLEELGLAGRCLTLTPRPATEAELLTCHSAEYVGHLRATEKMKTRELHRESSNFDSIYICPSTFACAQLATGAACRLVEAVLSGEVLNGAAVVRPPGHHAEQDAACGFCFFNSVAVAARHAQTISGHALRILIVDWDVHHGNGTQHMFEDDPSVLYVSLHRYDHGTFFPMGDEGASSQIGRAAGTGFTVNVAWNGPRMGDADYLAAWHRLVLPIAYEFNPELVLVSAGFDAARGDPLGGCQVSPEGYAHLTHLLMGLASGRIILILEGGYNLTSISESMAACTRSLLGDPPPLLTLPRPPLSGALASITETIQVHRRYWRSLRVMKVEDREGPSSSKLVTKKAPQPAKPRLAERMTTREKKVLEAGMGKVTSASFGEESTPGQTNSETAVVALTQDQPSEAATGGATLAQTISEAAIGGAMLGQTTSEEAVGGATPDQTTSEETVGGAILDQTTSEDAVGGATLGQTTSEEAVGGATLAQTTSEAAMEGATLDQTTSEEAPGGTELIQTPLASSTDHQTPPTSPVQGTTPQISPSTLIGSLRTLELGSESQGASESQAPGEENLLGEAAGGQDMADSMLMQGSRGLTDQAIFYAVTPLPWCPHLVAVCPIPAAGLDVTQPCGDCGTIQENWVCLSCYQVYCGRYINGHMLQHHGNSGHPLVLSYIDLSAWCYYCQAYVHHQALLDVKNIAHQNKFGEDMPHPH
Kind of test: HDAC6 enzyme activity inhibition assay (in vitro, fluorimetric). The settings on record: for HDAC6 selectivity (fold): HDAC6 selectivity over HDAC1; for IC50: human recombinant HDAC6, fluorimetric kit, same protocol as HDAC1. The format is biochemical. The procedure, abridged: as §1

Bounds are passed on as bounds.

T1 sequence (Q13547 whole entry): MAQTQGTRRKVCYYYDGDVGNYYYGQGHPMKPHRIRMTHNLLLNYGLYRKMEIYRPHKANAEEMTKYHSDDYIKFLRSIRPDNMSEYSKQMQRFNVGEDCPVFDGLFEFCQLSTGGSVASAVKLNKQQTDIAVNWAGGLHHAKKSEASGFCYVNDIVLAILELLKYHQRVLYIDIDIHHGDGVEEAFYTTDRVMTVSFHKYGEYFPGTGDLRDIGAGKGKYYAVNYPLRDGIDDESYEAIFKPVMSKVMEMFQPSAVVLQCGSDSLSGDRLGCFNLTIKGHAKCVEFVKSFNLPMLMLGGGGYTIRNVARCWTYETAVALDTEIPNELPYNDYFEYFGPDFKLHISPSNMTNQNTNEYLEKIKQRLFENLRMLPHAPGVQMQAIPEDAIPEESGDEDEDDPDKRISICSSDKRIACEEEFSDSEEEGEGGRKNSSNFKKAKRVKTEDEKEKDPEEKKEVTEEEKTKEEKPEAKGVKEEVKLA

Regarding `C[C@@H]1CN(CCc2ccccc2)C[C@H](C)N1Cc1ccc(C(=O)NO)cc1` [Compound 183, 4-(((2S,6R)-2,6-dimethyl-4-phenethylpiperazin-1-yl)methyl)-N-hydroxybenzamide], on human recombinant HDAC1, the IC50 was over 10000 nM. Further, at human recombinant HDAC6, the “HDAC6 selectivity (fold)” value was over 20 fold and the IC50 came to 500 nM.
For `C[C@@H]1CN(S(=O)(=O)c2ccc(CC(=O)NO)cc2)C[C@H](C)N1Cc1ccccc1` [Compound 820, 2-(4-(((3R,5S)-4-benzyl-3,5-dimethylpiperazin-1-yl)sulfonyl)phenyl)-N-hydroxyacetamide], the IC50 on human recombinant HDAC1 was found to be 2250 nM; at human recombinant HDAC6 it was 250 nM. Further, the “HDAC6 selectivity (fold)” value at human recombinant HDAC6 was 9 fold.
For `C[C@@H]1CN(Cc2ccc(/C=C/C(=O)NO)cc2)C[C@H](C)N1Cc1cccc(CN2CCOCC2)c1` [Compound 472, (E)-3-(4-(((3R,5S)-3,5-dimethyl-4-(3-(morpholinomethyl)benzyl)piperazin-1-yl)methyl)phenyl)-N-hydroxyacrylamide], in that order: 200 nM, 55 nM and 3 fold.
On the same counts, the results for `Cc1nccn1-c1ccccc1CN1C[C@@H](C)N(Cc2ccc(C(=O)NO)cc2)[C@@H](C)C1` [Compound 305, 4-(((2S,6R)-2,6-dimethyl-4-(2-(2-methyl-1H-imidazol-1-yl)benzyl)piperazin-1-yl)methyl)-N-hydroxybenzamide] are 5600 nM, 32 nM and 174 fold.
For `C[C@@H]1CN(Cc2ccc(C(=O)NO)cc2)C[C@H](C)N1Cc1cccc(F)c1` [Compound 225, 4-(((3R,5S)-4-(3-fluorobenzyl)-3,5-dimethylpiperazin-1-yl)methyl)-N-hydroxybenzamide], in that order: 1900 nM, 52 nM and 36 fold.
In the case of `CCN(CC)Cc1cccc(CN2[C@H](C)CN(Cc3ccc(C(=O)NO)cc3)C[C@@H]2C)c1` [Compound 426, 4-(((3R,5S)-4-(3-((diethylamino)methyl)benzyl)-3,5-dimethylpiperazin-1-yl)methyl)-N-hydroxybenzamide], at human recombinant HDAC1, the IC50 is 5000 nM. Also, on human recombinant HDAC6, the “HDAC6 selectivity (fold)” value came out at 35 fold and the concentration for half-maximal inhibition (IC50) turned out to be 142 nM.
Consider `C[C@@H]1CN(Cc2ccc(C(=O)NO)cc2)C[C@H](C)N1C(=O)c1ccc(CN2CCN(C)CC2)cc1` [Compound 462, 4-(((3R,5S)-3,5-dimethyl-4-(4-((4-methylpiperazin-1-yl)methyl)benzoyl)piperazin-1-yl)methyl)-N-hydroxybenzamide], for which the IC50 came to 3200 nM on human recombinant HDAC1 and 264 nM at human recombinant HDAC6. The “HDAC6 selectivity (fold)” value at human recombinant HDAC6 worked out at 12 fold.
For `C[C@@H]1CN(Cc2ccc(C(=O)NO)cc2)C[C@H](C)N1Cc1cccc(CN2CCN(S(C)(=O)=O)CC2)c1` [Compound 452, 4-(((3R,5S)-3,5-dimethyl-4-(3-((4-(methylsulfonyl)piperazin-1-yl)methyl)benzyl)piperazin-1-yl)methyl)-N-hydroxybenzamide], in that order: 9100 nM, 65 nM and 140 fold.
On the same counts, the results for `C[C@@H]1CN(C(=O)c2cccs2)C[C@H](C)N1Cc1ccc(C(=O)NO)cc1` [Compound 114, 4-(((2S,6R)-2,6-dimethyl-4-(thiophene-2-carbonyl)piperazin-1-yl)methyl)-N-hydroxybenzamide] are 2400 nM, 185 nM and 13 fold.
`CC(C)=CCN1[C@H](C)CN(Cc2ccc(C(=O)NO)cc2)C[C@@H]1C` [Compound 272, 4-(((3R,5S)-3,5-dimethyl-4-(3-methylbut-2-en-1-yl)piperazin-1-yl)methyl)-N-hydroxybenzamide]: the figures for the IC50 on human recombinant HDAC1 and on human recombinant HDAC6 were 12200 nM and 182 nM, respectively. At human recombinant HDAC6, the “HDAC6 selectivity (fold)” value was determined as 67 fold.
On to `C[C@@H]1CN(C(=O)c2cccc(-c3ccoc3)c2)C[C@H](C)N1Cc1ccc(C(=O)NO)cc1` [Compound 258, 4-(((2S,6R)-4-(3-(furan-3-yl)benzoyl)-2,6-dimethylpiperazin-1-yl)methyl)-N-hydroxybenzamide], for which the values for the IC50 on human recombinant HDAC1 and on human recombinant HDAC6 were 1700 nM and 258 nM, respectively. Also, the “HDAC6 selectivity (fold)” value on human recombinant HDAC6 was found to be 7 fold.
In the case of `Cc1ccccc1NC(=O)N1[C@H](C)CN(Cc2ccc(C(=O)NO)cc2)C[C@@H]1C` [Compound 160, (2S,6R)-4-(4-(hydroxycarbamoyl)benzyl)-2,6-dimethyl-N-o-tolylpiperazine-1-carboxamide], the IC50 on human recombinant HDAC1 worked out at 8800 nM; at human recombinant HDAC6, 50 nM. The “HDAC6 selectivity (fold)” value at human recombinant HDAC6 is on record as 177 fold.
For `C[C@@H]1CN(Cc2cccc(C(F)(F)F)c2)C[C@H](C)N1Cc1ccc(C(=O)NO)cc1` [Compound 298, 4-(((2S,6R)-2,6-dimethyl-4-(3-(trifluoromethyl)benzyl)piperazin-1-yl)methyl)-N-hydroxybenzamide], in that order: 5500 nM, 369 nM and 15 fold.
As for `C[C@@H]1CN(Cc2ccc(C(=O)NO)cc2)C[C@H](C)N1C(=O)C(C)(C)C` [Compound 292, 4-(((3R,5S)-3,5-dimethyl-4-pivaloylpiperazin-1-yl)methyl)-N-hydroxybenzamide], the IC50 at human recombinant HDAC1 came out at 5600 nM. Moreover, at human recombinant HDAC6, the “HDAC6 selectivity (fold)” value amounted to 76 fold and the IC50 was determined as 74 nM.
Regarding `CC(C)NC(=O)N1C[C@@H](C)N(Cc2ccc(C(=O)NO)cc2)[C@@H](C)C1` [Compound 103, (3R,5S)-4-(4-(hydroxycarbamoyl)benzyl)-N-isopropyl-3,5-dimethylpiperazine-1-carboxamide], the IC50 on human recombinant HDAC1 came out at 2600 nM; on human recombinant HDAC6, 173 nM. In addition, the “HDAC6 selectivity (fold)” value on human recombinant HDAC6 amounted to 15 fold.
For `C[C@@H]1CN(Cc2ccc(C(=O)NO)cc2)C[C@H](C)N1Cc1cccc(-c2cccnc2)c1` [Compound 344, 4-(((3R,5S)-3,5-dimethyl-4-(3-(pyridin-3-yl)benzyl)piperazin-1-yl)methyl)-N-hydroxybenzamide], in that order: 5800 nM, 12 nM and 481 fold.
On the same counts, the results for `C[C@@H]1CN(Cc2ccc(C(=O)NO)cc2)C[C@H](C)N1C(=O)c1cccc(CN2CCOCC2)c1` [Compound 439, 4-(((3R,5S)-3,5-dimethyl-4-(3-(morpholinomethyl)benzoyl)piperazin-1-yl)methyl)-N-hydroxybenzamide] are 10900 nM, 104 nM and 105 fold.
Consider `C[C@@H]1CN(Cc2ccc(C(=O)NO)cc2)C[C@H](C)N1Cc1ccccc1C1=CCN(CC(F)(F)F)CC1` [Compound 483, 4-(((3R,5S)-3,5-dimethyl-4-(2-(1-(2,2,2,2-trifluoroethyl)-1,2,3,6-tetrahydropyridin-4-yl)benzyl)piperazin-1-yl)methyl)-N-hydroxybenzamide], for which the IC50 at human recombinant HDAC1 turned out to be 17100 nM. For the same molecule, on human recombinant HDAC6, the “HDAC6 selectivity (fold)” value worked out at 166 fold and the 50% inhibitory concentration (IC50) turned out to be 103 nM.
For `C[C@@H]1CN(C(=O)NCc2ccccc2)C[C@H](C)N1Cc1ccc(C(=O)NO)cc1` [Compound 168, (3R,5S)-N-benzyl-4-(4-(hydroxycarbamoyl)benzyl)-3,5-dimethylpiperazine-1-carboxamide], in that order: 2200 nM, 7 fold and 316 nM.
For `C[C@@H]1CN(Cc2cc(F)c(F)cc2F)C[C@H](C)N1Cc1ccc(C(=O)NO)cc1` [Compound 215, 4-(((2S,6R)-2,6-dimethyl-4-(2,4,5-trifluorobenzyl)piperazin-1-yl)methyl)-N-hydroxybenzamide], in that order: over 10000 nM, 2 fold and 523 nM.
